The assay deals with Angiotensin-converting enzyme (Homo sapiens, UniProt P12821). The assay can be described thus: Inhibition of ACE (unknown origin) using 3-Hydroxybutylyl-Gly-Gly-Gly substrate assessed as reduction in 3-Hyroxybutylic acid generation incubated for 1 hr by colorimetric assay.
Angiotensin-converting enzyme, sequence (P12821 whole entry): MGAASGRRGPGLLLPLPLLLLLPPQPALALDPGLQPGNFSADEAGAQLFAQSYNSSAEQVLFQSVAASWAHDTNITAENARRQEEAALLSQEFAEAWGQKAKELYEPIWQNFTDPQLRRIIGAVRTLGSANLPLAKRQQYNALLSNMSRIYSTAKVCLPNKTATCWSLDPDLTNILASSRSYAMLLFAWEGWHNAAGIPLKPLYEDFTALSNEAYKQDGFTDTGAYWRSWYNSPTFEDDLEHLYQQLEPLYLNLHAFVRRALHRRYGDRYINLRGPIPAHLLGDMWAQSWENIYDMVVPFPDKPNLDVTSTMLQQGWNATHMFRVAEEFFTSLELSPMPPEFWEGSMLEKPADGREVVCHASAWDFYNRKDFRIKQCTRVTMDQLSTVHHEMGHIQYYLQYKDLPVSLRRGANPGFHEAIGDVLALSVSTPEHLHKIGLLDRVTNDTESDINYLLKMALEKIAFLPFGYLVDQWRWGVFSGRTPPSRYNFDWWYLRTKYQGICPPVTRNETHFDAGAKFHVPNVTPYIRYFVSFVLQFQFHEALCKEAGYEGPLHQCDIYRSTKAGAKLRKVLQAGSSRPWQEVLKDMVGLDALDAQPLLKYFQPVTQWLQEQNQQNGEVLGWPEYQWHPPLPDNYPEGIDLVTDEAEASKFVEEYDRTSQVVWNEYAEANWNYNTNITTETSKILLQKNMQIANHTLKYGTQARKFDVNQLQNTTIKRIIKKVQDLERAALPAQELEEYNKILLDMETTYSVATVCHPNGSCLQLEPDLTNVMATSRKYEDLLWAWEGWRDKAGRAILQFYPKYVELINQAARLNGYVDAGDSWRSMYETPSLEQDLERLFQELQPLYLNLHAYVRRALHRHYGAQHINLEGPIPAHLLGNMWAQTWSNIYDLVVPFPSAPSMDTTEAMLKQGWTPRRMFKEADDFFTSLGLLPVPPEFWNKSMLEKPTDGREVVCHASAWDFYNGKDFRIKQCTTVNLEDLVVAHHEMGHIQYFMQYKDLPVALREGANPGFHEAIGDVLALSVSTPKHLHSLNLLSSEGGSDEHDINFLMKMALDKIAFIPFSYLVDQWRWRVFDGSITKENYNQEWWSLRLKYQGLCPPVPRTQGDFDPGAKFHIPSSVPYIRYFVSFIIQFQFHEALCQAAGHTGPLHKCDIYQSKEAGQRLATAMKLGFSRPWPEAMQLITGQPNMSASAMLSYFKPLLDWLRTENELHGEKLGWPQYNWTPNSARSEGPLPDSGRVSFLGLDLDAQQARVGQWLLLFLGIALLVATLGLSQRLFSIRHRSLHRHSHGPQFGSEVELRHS

For `N=C(N)NCCC[C@H](N)C(=O)O` [ARGININE], the IC50 entry is reported as “Not Active”.

`O=C(O)C1CSSC1`: the IC50 result is reported as “Not Active”.

As to `O=C(OC1O[C@H](CO)[C@@H](O)[C@H](O)[C@H]1O)C1CSSC1` (stereo not given in full), the IC50 (read-out: IC50) worked out at 347 µM.

On to `N=C(N)NCCC[C@@H](N)C(=O)O`, for which the IC50 entry was “Not Active”.

In the case of `N[C@@H](CC(=O)O)C(=O)O` [ASPARTIC ACID], the IC50 entry is given as “Not Active”.
